Test [1] concerns progesterone-induced endometrial proliferation. Briefly: AntiClauberg test. It is filed as in vivo, rabbit. Also noted: key to ANTIPROGESTATIONAL Anti-Clauberg: relative oral potency vs. reference compound set to 100. The settings on record: for ANTIPROGESTATIONAL Anti-Clauberg: relative potency; for ANTIPROGESTATIONAL Anti-Clauberg / BIOLOGICAL ACTIVITY antiClauberg: CDB-2914 = 100 (assigned); for antiClauberg / oral antiprogestational activity, in words: versus the standard 69B; for BIOLOGICAL ACTIVITY antiClauberg: Table 2; for ANTIPROGESTATIONAL ACTIVITY ANTI-CLAUBERG: estrogen-primed immature rabbits, CDB-2477 = 1.0 (assigned). Put shortly:
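Immature NZW rabbits were estradiol-primed s.c. for 6 days, then given progesterone 0.8 mg/day s.c. plus compound orally or s.c. for 5 days. Uteri were sectioned and H&E-scored for endometrial glandular proliferation (McPhail). Percent inhibition was calculated per dose versus progesterone-only animals.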

Test [2] addresses T1, glucocorticoid receptor (estrogen-primed rabbit thymus) (Oryctolagus cuniculus, UniProt P59667).
T1 construct: preparation of cytosols for the progesterone and glucocorticoid receptor assays; from tissue; host or cells: thymus of estradiol-primed immature female New Zealand White rabbits (cytosol)
T1 sequence (P59667 1-772): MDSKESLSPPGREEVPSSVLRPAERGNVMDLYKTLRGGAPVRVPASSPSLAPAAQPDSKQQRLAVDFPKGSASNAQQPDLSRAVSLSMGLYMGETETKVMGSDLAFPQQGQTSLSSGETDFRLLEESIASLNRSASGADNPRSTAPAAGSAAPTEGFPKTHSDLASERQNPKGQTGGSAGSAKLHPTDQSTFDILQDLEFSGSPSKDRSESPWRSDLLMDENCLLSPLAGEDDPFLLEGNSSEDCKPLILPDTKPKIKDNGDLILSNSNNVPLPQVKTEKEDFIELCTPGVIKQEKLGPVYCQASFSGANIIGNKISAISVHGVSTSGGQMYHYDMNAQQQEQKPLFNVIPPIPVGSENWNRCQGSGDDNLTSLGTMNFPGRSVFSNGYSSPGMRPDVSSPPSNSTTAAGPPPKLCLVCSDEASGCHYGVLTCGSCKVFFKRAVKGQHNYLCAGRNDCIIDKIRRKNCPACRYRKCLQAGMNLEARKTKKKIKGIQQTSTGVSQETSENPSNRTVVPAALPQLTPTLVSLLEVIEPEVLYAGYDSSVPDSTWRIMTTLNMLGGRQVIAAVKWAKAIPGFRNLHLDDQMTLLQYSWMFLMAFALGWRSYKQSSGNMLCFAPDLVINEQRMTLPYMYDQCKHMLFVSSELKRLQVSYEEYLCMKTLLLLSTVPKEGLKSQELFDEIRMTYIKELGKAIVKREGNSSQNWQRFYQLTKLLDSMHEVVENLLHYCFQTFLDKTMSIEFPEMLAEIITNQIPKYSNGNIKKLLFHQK
Briefly: Relative binding affinity, glucocorticoid receptor. The settings on record: for RELATIVE BINDING AFFINITY Glucocorticoid / BINDING AFFINITY Glucocortic: estrogen-primed rabbit thymus, dexamethasone = 100%; for binding affinity for the glucocorticoid receptor, in words: rabbit thymus, versus CDB-2914 (69B) where stated; for BINDING AFFINITY Glucocortic: Table 2.

The structures appear in SMILES notation. Entries after “also recorded” stand apart in the source; their conditions may differ.

Consider `CN(C)c1ccc(C2CC3(C)C(CCC34OCC4=O)C3CCC4=CC(=O)CCC4=C23)cc1` (stereo not drawn) [Compound 12, 17-Spirooxetano-3′-oxo-11β-[4-(N,N-dimethylamino)phenyl]-19-norpregna-4,9-dien-3-one], for which the “ANTIPROGESTATIONAL Anti-Clauberg” value in test [1] (oral) is 29. In addition, the “RELATIVE BINDING AFFINITY Glucocorticoid” value in test [2] is reported as 32%.

With `CC(=O)O[C@]1(C(=O)CF)CCC2C3CCC4=CC(=O)CCC4=C3C(c3ccc(N(C)C)cc3)C[C@@]21C` (stereo partly drawn) [Compound 13, 17α-acetoxy-21-fluoro-11β-[4-(N,N-dimethylamino)phenyl]-19-norpregna-4,9-diene-3,20-dione], the “ANTIPROGESTATIONAL Anti-Clauberg” value in test [1] (oral) is 80. Also, the “RELATIVE BINDING AFFINITY Glucocorticoid” value in test [2] stood at 109%.

Consider `CC(=O)O[C@]1(C(=O)CCl)CCC2C3CCC4=CC(=O)CCC4=C3C(c3ccc(N(C)C)cc3)C[C@@]21C` (some centres unmarked) [Compound 14A], for which the “ANTIPROGESTATIONAL Anti-Clauberg” value in test [1] (oral) was 68. Besides, the “RELATIVE BINDING AFFINITY Glucocorticoid” value in test [2] is on record as 90%.

Turning to `CC(=O)OCC(=O)[C@@]1(OC(C)=O)CCC2C3CCC4=CC(=O)CCC4=C3C(c3ccc(N(C)C)cc3)C[C@@]21C` (stereo partly drawn) [Compound 15, 17α,21-diacetoxy-11β-[4-(N,N-dimethylamino)phenyl]-19-norpregna-4,9-diene-3,20-dione], in test [1] (oral), the “ANTIPROGESTATIONAL Anti-Clauberg” value was 279 and the “antiClauberg / oral antiprogestational activity, in words” value is on record as “greater activity than the standard”. Also, the “antiprogestational potency compared to the lead compound (CDB-2914), oral antiClauberg test” value in test [1] (oral, versus CDB-2914) amounted to 2.79 times. Also, in test [2], the “RELATIVE BINDING AFFINITY Glucocorticoid” value turned out to be 51% and the “binding affinity for the glucocorticoid receptor, in words” value (from here on “binding affinity … in words”) is reported as “substantial reduction in glucocorticoid binding affinity; also recorded: low binding affinity”.

With `CC(=O)O[C@]1(C(=O)CO)CCC2C3CCC4=CC(=O)CCC4=C3C(c3ccc(N(C)C)cc3)C[C@@]21C` (stereo partly drawn) [Compound 41, 17α-acetoxy-21-hydroxy-11β-[4-(N,N-dimethylamino)phenyl]-19-norpregna-4,9-diene-3,20-dione], in test [1] (oral), the “ANTIPROGESTATIONAL Anti-Clauberg” value was 140 and the “antiClauberg / oral antiprogestational activity, in words” value is “greater activity than the standard”. For the same compound, the “RELATIVE BINDING AFFINITY Glucocorticoid” value in test [2] was 71%.

For `CC(=O)O[C@]1(C(C)=O)CC[C@H]2[C@@H]3CCC4=CC(=O)CCC4=C3[C@@H](c3ccc(N(C)C)cc3)C[C@@]21C` [Compound 69B, 17α-acetoxy-11β-(4-N,N-dimethylaminophenyl)-19-norpregna-4,9-diene-3,20-dione, reference compound], in test [1] (oral), the “BIOLOGICAL ACTIVITY antiClauberg” value is reported as 100, the “ANTIPROGESTATIONAL ACTIVITY ANTI-CLAUBERG” value is 3.27 and the “ANTIPROGESTATIONAL Anti-Clauberg” value worked out at 100. Also, in test [1] (oral administration), the “potency of the standard relative to mifepristone in the antiClauberg test” value amounted to 3 times. In test [1] (oral, 95% C.I.=1.41-7.58, previous studies), the “potency of 69B relative to mifepristone in the antiClauberg test” value is 3.27 ×. Further, in test [2], the “BINDING AFFINITY Glucocortic” value is reported as 114% and the “RELATIVE BINDING AFFINITY Glucocorticoid” value is recorded as 114%.

Turning to `CC(=O)O[C@]1(C(C)=O)CC[C@H]2[C@@H]3CCC4=CC(=O)CCC4=C3[C@@H](c3ccc(N4CCCCC4)cc3)C[C@@]21C` [Compound 71, 17α-Acetoxy-11β-[4(N-Piperidino)phenyl]-19-norpregna-4,9-diene-3,20-dione], in test [1] (oral), the “BIOLOGICAL ACTIVITY antiClauberg” value was 253 and the “antiClauberg / oral antiprogestational activity, in words” value is “greater activity than the standard”. Moreover, in test [2], the “BINDING AFFINITY Glucocortic” value turned out to be 20% and the “binding affinity … in words” value is “low binding affinity”.

Take `CC(=O)OCC(=O)[C@@]1(OC(C)=O)CC[C@H]2[C@@H]3CCC4=CC(=O)CCC4=C3[C@@H](c3ccc(C(C)=O)cc3)C[C@@]21C` [Compound 106b, 17α,21-Diacetoxy-11β-(4-acetylphenyl)19-norpregna-4,9-diene-3,20-dione]: in test [1] (oral), the “BIOLOGICAL ACTIVITY antiClauberg” value is recorded as 34. In test [2], the “BINDING AFFINITY Glucocortic” value is recorded as 14%.

Take `COCC(=O)[C@@]1(OC)CC[C@H]2[C@@H]3CCC4=CC(=O)CCC4=C3[C@@H](c3ccc(N(C)C)cc3)C[C@@]21C` [Compound 113a, 17α,21-Dimethoxy-11β-[4-(N,N-dimethylamino)phenyl]-19-norpregna-4,9-diene-3,20-dione]: in test [1] (oral), the “BIOLOGICAL ACTIVITY antiClauberg” value is 229 and the “antiClauberg / oral antiprogestational activity, in words” value is “greater activity than the standard; also recorded: more than twice as active at the standard”. Besides, in test [2], the “BINDING AFFINITY Glucocortic” value is recorded as 62% and the “binding affinity … in words” value is on record as “reduced binding affinity”.

Turning to `COCC(=O)C1(OC(C)=O)CCC2C3CCC4=CC(=O)CCC4=C3C(c3ccc(N4CCCCC4)cc3)CC21C` (stereo not drawn) [Compound 123a, 17α-Acetoxy-1113-[4-(N-piperidino)phenyl]-21-methoxy-19-norpregna-4,9-diene-3,20-dione], the “BIOLOGICAL ACTIVITY antiClauberg” value in test [1] (oral) is 45-83. Also, the “BINDING AFFINITY Glucocortic” value in test [2] came out at 11%.

For the compound `CC#C[C@]1(O)CC[C@H]2[C@@H]3CCC4=CC(=O)CCC4=C3[C@@H](c3ccc(N(C)C)cc3)C[C@@]21C` [mifepristone], the “ANTIPROGESTATIONAL ACTIVITY ANTI-CLAUBERG” value in test [1] (oral) came out at 1.0. Also, the “binding affinity … in words” value in test [2] is reported as “greater binding affinity”.

(Values after patent publication US6900193B1, “Structural modification of 19-norprogesterone I: 17-α-substituted-11-β-substituted-4-aryl and 21-substituted 19-norpregnadienedione as new antiprogestational agents” (The United States of America as represented by the …, priority 1996, dated 2005).)
